According to ChEMBL document CHEMBL1201862, “PubChem BioAssay data set” (2004):
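1) Cells in 96-well plates. 2) Compound, 48 h, 5 concentrations. 3) Linear interpolation between surrounding doses. 4) Unreached endpoint = highest concentration. GI50 is the concentration that inhibits growth by half.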 Calls of active or inactive are those of the source. No stated cut-off is given here; in the data, active = GI50 up to about 1.1 µM and inactive = higher.

How the values were obtained:
Assay in all cases: NCI tumour cell line growth inhibition, 48 h
MCF7 = system: MCF7
786-0 = system: 786-0
HOP-92 = system: HOP-92
M14 = system: M14
HCT-15 = system: HCT-15
NCI-H522 = system: NCI-H522
DU-145 = system: DU-145
CCRF-CEM = system: CCRF-CEM
SK-OV-3 = system: SK-OV-3
Malme-3M = system: Malme-3M
NCI-H460 = system: NCI-H460
TK-10 = system: TK-10
NCI/ADR-RES = system: NCI/ADR-RES
A549 = system: A549
RXF 393 = system: RXF 393
NCI-H23 = system: NCI-H23
SK-MEL-2 = system: SK-MEL-2
SW-620 = system: SW-620
DLD-1 = system: DLD-1
LXFL 529 = system: LXFL 529

Compound | GI50 (MCF7) | GI50 (786-0) | GI50 (HOP-92) | GI50 (M14) | GI50 (HCT-15) [µM] | GI50 (NCI-H522) | GI50 (DU-145) | GI50 (CCRF-CEM) | GI50 (SK-OV-3) | GI50 (Malme-3M) | GI50 (NCI-H460) | GI50 (TK-10) | GI50 (NCI/ADR-RES) | GI50 (A549) | GI50 (RXF 393) | GI50 (NCI-H23) | GI50 (SK-MEL-2) | GI50 (SW-620) | GI50 (DLD-1) | GI50 (LXFL 529)
COc1ccc2c(c1)Cc1cc(/N=[N+](\[O-])c3ccc4c(c3)Cc3cc(OC)ccc3-4)ccc1-2 | 19.7 µM (inactive) | 33.2 µM (inactive) | 44.1 µM (inactive) | 49.4 µM (inactive) | 95.7 | 4.78 µM (inactive) | > 100 µM (inactive) | 12 µM (inactive) | > 100 µM (inactive) | 38.9 µM (inactive) | 39.3 µM (inactive) | 64.3 µM (inactive) | 89.1 µM (inactive) | 43.1 µM (inactive) | 57.7 µM (inactive) | 65.6 µM (inactive) | 60 µM (inactive) | > 100 µM (inactive) | – | –
COc1cccc(/C=C/c2cnc3ccccc3n2)c1OC | 25.9 µM (inactive) | 39.1 µM (inactive) | 23.7 µM (inactive) | 46.2 µM (inactive) | 27.5 | 17 µM (inactive) | 60.7 µM (inactive) | 35.6 µM (inactive) | 71.6 µM (inactive) | 34.5 µM (inactive) | 24.8 µM (inactive) | 50.5 µM (inactive) | 18.5 µM (inactive) | 40.7 µM (inactive) | 21.8 µM (inactive) | 31.9 µM (inactive) | 28.8 µM (inactive) | 52.1 µM (inactive) | – | –
CC(C)/C(Cl)=N/OC(=O)Nc1cccc(C(F)(F)F)c1 | 5.35 µM (inactive) | 2.52 µM (inactive) | 1.75 µM (inactive) | 3.52 µM (inactive) | 1.82 | 0.14 µM (active) | 17.3 µM (inactive) | 0.532 µM (active) | 17.7 µM (inactive) | 1.6 µM (inactive) | 17.8 µM (inactive) | 3.5 µM (inactive) | 5.5 µM (inactive) | 19.3 µM (inactive) | 5.9 µM (inactive) | 14.5 µM (inactive) | 17.8 µM (inactive) | 1.35 µM (inactive) | – | –
O=[N+]([O-])c1nccn1CCCNCCCn1ccnc1[N+](=O)[O-] | > 100 µM (inactive) | > 100 µM (inactive) | > 100 µM (inactive) | > 100 µM (inactive) | > 100 | > 100 µM (inactive) | > 100 µM (inactive) | > 100 µM (inactive) | > 100 µM (inactive) | 36.6 µM (inactive) | > 100 µM (inactive) | > 100 µM (inactive) | > 100 µM (inactive) | > 100 µM (inactive) | > 100 µM (inactive) | > 100 µM (inactive) | > 100 µM (inactive) | > 100 µM (inactive) | – | –
CN(C)Cc1c(O)ccc2c1c1c(n2C)C(=O)c2ccccc2C1=O | 5.86 µM (inactive) | 7.21 µM (inactive) | 12.6 µM (inactive) | 11.2 µM (inactive) | 4.49 | 3.95 µM (inactive) | 3.75 µM (inactive) | 0.492 µM (active) | 20.2 µM (inactive) | 3.72 µM (inactive) | 1.85 µM (inactive) | 7.41 µM (inactive) | 2.73 µM (inactive) | 2.51 µM (inactive) | 12.4 µM (inactive) | 5.12 µM (inactive) | 5.31 µM (inactive) | 4.72 µM (inactive) | – | –
CN(C)/C=N/S(=O)(=O)c1nn2c(C=O)c(-c3ccccc3)nc2s1 | 4.93 µM (inactive) | 5.62 µM (inactive) | 17.5 µM (inactive) | 2.51 µM (inactive) | 9.46 | 3.37 µM (inactive) | 23.4 µM (inactive) | 2.96 µM (inactive) | > 80.5 µM (inactive) | 12.9 µM (inactive) | 20.8 µM (inactive) | 12.9 µM (inactive) | 23.2 µM (inactive) | 26.6 µM (inactive) | 13 µM (inactive) | 19.7 µM (inactive) | 43 µM (inactive) | 3.76 µM (inactive) | – | –
C=C(CC[C@@H](C)[C@H]1CC[C@H]2[C@@H]3C[C@@H](O)[C@H]4C[C@@H](O)CC[C@]4(CO)[C@H]3CC[C@]12C)C(C)C | 2.67 µM (inactive) | 3.75 µM (inactive) | 8.28 µM (inactive) | 6.97 µM (inactive) | 2.83 | 5.24 µM (inactive) | 3.48 µM (inactive) | 3.56 µM (inactive) | 9.1 µM (inactive) | 6.49 µM (inactive) | 2.18 µM (inactive) | 2.37 µM (inactive) | 4.49 µM (inactive) | 4.23 µM (inactive) | 3.32 µM (inactive) | 5.75 µM (inactive) | 7.33 µM (inactive) | 5.98 µM (inactive) | – | –
COc1nc2c(c(O)c(C)c(=O)n2OC2OCC(OC(C)=O)C(OC(C)=O)C2OC(C)=O)c(=O)n1C (stereo unspecified) | – | > 100 µM (inactive) | – | > 100 µM (inactive) | > 100 | 91.8 µM (inactive) | – | > 100 µM (inactive) | – | – | > 100 µM (inactive) | > 100 µM (inactive) | – | > 100 µM (inactive) | > 100 µM (inactive) | > 100 µM (inactive) | > 100 µM (inactive) | > 100 µM (inactive) | > 100 µM (inactive) | > 100 µM (inactive)
COC(=O)C(C(=O)C(=O)Nc1ccc(C(F)(F)F)cc1[N+](=O)[O-])c1csc(-n2nc(-c3ccccc3)cc2-c2ccccc2)n1 (stereo unspecified) | – | > 100 µM (inactive) | – | > 100 µM (inactive) | > 100 | > 100 µM (inactive) | – | > 100 µM (inactive) | > 100 µM (inactive) | > 100 µM (inactive) | > 100 µM (inactive) | > 100 µM (inactive) | – | > 100 µM (inactive) | > 100 µM (inactive) | > 100 µM (inactive) | > 100 µM (inactive) | > 100 µM (inactive) | – | > 100 µM (inactive)
CCOC(=O)C(NC(=O)CC(C)C)(NC(C)C)C(F)(F)F (stereo unspecified) | > 100 µM (inactive) | > 100 µM (inactive) | > 100 µM (inactive) | > 100 µM (inactive) | > 100 | > 100 µM (inactive) | > 100 µM (inactive) | > 100 µM (inactive) | > 100 µM (inactive) | > 100 µM (inactive) | > 100 µM (inactive) | > 100 µM (inactive) | > 100 µM (inactive) | > 100 µM (inactive) | > 100 µM (inactive) | > 100 µM (inactive) | > 100 µM (inactive) | > 100 µM (inactive) | – | –
CCCC(S(=O)(=O)c1ccccc1)S(=O)(=O)c1ccccc1 | – | > 100 µM (inactive) | – | > 100 µM (inactive) | > 100 | – | – | > 100 µM (inactive) | > 100 µM (inactive) | > 100 µM (inactive) | > 100 µM (inactive) | > 100 µM (inactive) | – | > 100 µM (inactive) | > 100 µM (inactive) | > 100 µM (inactive) | > 100 µM (inactive) | > 100 µM (inactive) | > 100 µM (inactive) | > 100 µM (inactive)
COc1ccc2c(c1)c1c3c(ccc4ncn2c43)N(CCO)CCN=1 | 0.189 µM (active) | 0.0736 µM (active) | 2.07 µM (inactive) | 0.271 µM (active) | 0.195 | 0.106 µM (active) | 0.282 µM (active) | 0.0476 µM (active) | 0.305 µM (active) | 0.187 µM (active) | 0.132 µM (active) | 0.389 µM (active) | 0.334 µM (active) | 0.218 µM (active) | 0.211 µM (active) | 0.191 µM (active) | 0.175 µM (active) | 0.802 µM (active) | – | –
C[C@@H]1OC(=O)N2CCCC(=C3SCCCS3)C12 (stereo partly specified) | – | > 100 µM (inactive) | 29.6 µM (inactive) | 48.9 µM (inactive) | > 100 | 59.2 µM (inactive) | – | 46.6 µM (inactive) | > 100 µM (inactive) | > 100 µM (inactive) | > 100 µM (inactive) | > 100 µM (inactive) | – | 78.5 µM (inactive) | 68.4 µM (inactive) | 64 µM (inactive) | > 100 µM (inactive) | > 100 µM (inactive) | – | 44.8 µM (inactive)
O=c1c(Cc2ccc(Cl)cc2)nnc2sc(-c3ccc(-c4ccc(F)c(Cl)c4)o3)nn12 | 32.7 µM (inactive) | 71 µM (inactive) | 58.7 µM (inactive) | 64.6 µM (inactive) | 34.9 | 62.1 µM (inactive) | > 100 µM (inactive) | 45.7 µM (inactive) | > 100 µM (inactive) | > 100 µM (inactive) | 55 µM (inactive) | > 100 µM (inactive) | 56.9 µM (inactive) | 51.3 µM (inactive) | > 100 µM (inactive) | 44.5 µM (inactive) | 51.4 µM (inactive) | 54.5 µM (inactive) | – | –
Cc1nc(N)sc1/N=N/c1ccccc1Br | 35.4 µM (inactive) | 36.6 µM (inactive) | 18 µM (inactive) | 37.7 µM (inactive) | 33.7 | 14.2 µM (inactive) | 34.7 µM (inactive) | 3.75 µM (inactive) | > 57.7 µM (inactive) | 26.2 µM (inactive) | 22.9 µM (inactive) | 37.9 µM (inactive) | 39.4 µM (inactive) | > 53.7 µM (inactive) | 21.8 µM (inactive) | 28.2 µM (inactive) | 34 µM (inactive) | > 53.1 µM (inactive) | – | –
CC(=O)Oc1ccc(/C=C/C(=O)O[C@@H](C(=O)O)[C@@H](OC(=O)/C=C/c2ccc(OC(C)=O)c(OC(C)=O)c2)C(=O)O)cc1OC(C)=O | > 100 µM (inactive) | > 100 µM (inactive) | > 100 µM (inactive) | > 100 µM (inactive) | > 100 | > 100 µM (inactive) | > 100 µM (inactive) | > 100 µM (inactive) | > 100 µM (inactive) | > 100 µM (inactive) | > 100 µM (inactive) | > 100 µM (inactive) | > 100 µM (inactive) | > 100 µM (inactive) | > 100 µM (inactive) | > 100 µM (inactive) | > 100 µM (inactive) | > 100 µM (inactive) | – | –
